# Numbers after ± are expanded uncertainties.
# Conditions: Liquid; for mass density: 298.15 K; for mass density / molar volume: 101.33 kPa; for molar volume / vapor or sublimation pressure: 313.15 K; for molar volume: Vibrating tube method; for vapor or sublimation pressure: Ebulliometric method (Recirculating still)
SMILES,mass density [kg/m3],molar volume [m3/mol],vapor or sublimation pressure [kPa]
CCOC(C)=O [ethyl acetate],894.97 ± 0.27,0.000101 ± 1e-06,25.3 ± 0.2
BrCBr [dibromomethane],2478.37 ± 2.3,7.1e-05 ± 1e-06,13.01 ± 0.15
ClCCBr [1-bromo-2-chloroethane],1727.88 ± 1.9,8.4e-05 ± 1e-06,8.91 ± 0.1
ClCBr [bromochloromethane],1924.88 ± 1.3,6.9e-05 ± 1e-06,37.28 ± 0.43
"ClCCCl [1,2-dichloroethane]",1246.59 ± 0.41,8.1e-05 ± 1e-06,21.05 ± 0.2

# — the NIST ThermoML archive (doi:10.1021/je034259j)
